From PubChem BioAssay (NCI)
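Method: 48-hour compound exposure of cells in 96-well plates, five concentrations, linear interpolation of endpoints. GI50: concentration for 50% inhibition of growth. TGI is the concentration that stops growth completely.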

Key:
Assay in all cases: NCI-60 cell line screen, 48 h
A498 renal = test system: A498 renal
A549 NSCLC = test system: A549 NSCLC
CCRF-CEM leukemia = test system: CCRF-CEM leukemia
HCT-116 colon = test system: HCT-116 colon
M14 melanoma = test system: M14 melanoma
MCF7 breast = test system: MCF7 breast
MOLT-4 leukemia = test system: MOLT-4 leukemia
NCI-H226 lung = test system: NCI-H226 lung
NCI-H460 lung = test system: NCI-H460 lung
SW-620 colon = test system: SW-620 colon

| Compound | GI50 (A498 renal) | TGI (A498 renal) | GI50 (A549 NSCLC) | TGI (A549 NSCLC) | GI50 (CCRF-CEM leukemia) | TGI (CCRF-CEM leukemia) | GI50 (HCT-116 colon) | TGI (HCT-116 colon) | GI50 (M14 melanoma) | TGI (M14 melanoma) | GI50 (MCF7 breast) | TGI (MCF7 breast) | GI50 (MOLT-4 leukemia) | TGI (MOLT-4 leukemia) | GI50 (NCI-H226 lung) | TGI (NCI-H226 lung) | GI50 (NCI-H460 lung) | TGI (NCI-H460 lung) | GI50 (SW-620 colon) | TGI (SW-620 colon) |
| --- | --- | --- | --- | --- | --- | --- | --- | --- | --- | --- | --- | --- | --- | --- | --- | --- | --- | --- | --- | --- |
| Cc1c2cnccc2c(C)c2c1c1cc(C#N)ccc1n2C | 0.11 µM | 0.285 µM | 0.1 µM | 0.895 µM | 0.249 µM | 2.83 µM | 0.0434 µM | 0.593 µM | 0.232 µM | 0.654 µM | 0.262 µM | 1.12 µM | 0.0959 µM | 1.68 µM | 0.112 µM | 0.379 µM | 0.124 µM | 0.427 µM | 0.0695 µM | 1.17 µM |
| CCSC1=NC2C(N(CC)C(=O)N2CC)N1/N=C/C=C/c1ccccc1[N+](=O)[O-] (stereo not given) | 0.0283 µM | 0.209 µM | 0.307 µM | > 100 µM | 0.331 µM | > 100 µM | 0.114 µM | > 100 µM | 0.184 µM | > 100 µM | 0.0415 µM | > 100 µM | 0.419 µM | > 100 µM | 0.381 µM | > 100 µM | 0.228 µM | 12.2 µM | 0.186 µM | > 100 µM |
| COc1ccc(C2=Nn3c(nnc3-c3cc(Cl)cc(Cl)c3Cl)SC2)cc1 | 0.583 µM | > 100 µM | 0.631 µM | > 37.4 µM | 0.519 µM | > 100 µM | 0.393 µM | > 100 µM | 0.349 µM | > 34 µM | 0.326 µM | > 100 µM | 1.49 µM | > 100 µM | 0.778 µM | > 100 µM | 0.502 µM | > 100 µM | 0.381 µM | > 100 µM |
| FC(F)(F)c1cccc(-c2nc3nc(Cl)c(Cl)nc3[nH]2)c1 | – | 6.12 µM | – | > 40.3 µM | – | 7.99 µM | – | 12.1 µM | – | 30.8 µM | – | 8.95 µM | – | 10.4 µM | – | 13.5 µM | – | > 30.3 µM | – | > 42.3 µM |
| CN(C)CCNC(=O)Cn1ccc(=O)c2cc([N+](=O)[O-])ccc21 | – | > 100 µM | – | > 100 µM | – | > 100 µM | – | > 100 µM | – | > 100 µM | – | > 100 µM | – | > 100 µM | – | > 100 µM | – | > 100 µM | – | > 100 µM |
| O=C(Nc1cccc(Cl)c1)Nn1cnnc1 | > 50 µM | > 100 µM | > 50 µM | > 100 µM | > 50 µM | > 100 µM | > 50 µM | > 100 µM | > 50 µM | > 100 µM | > 50 µM | > 100 µM | > 50 µM | > 100 µM | > 50 µM | > 100 µM | > 50 µM | > 100 µM | > 50 µM | > 100 µM |
| CO/N=C(\COc1ccc2c(c1)[nH]c1ccccc12)c1ccc(OC)cc1 | 19.2 µM | 46 µM | 5.29 µM | 25.2 µM | > 100 µM | > 100 µM | 28.3 µM | > 100 µM | > 100 µM | > 100 µM | 49.8 µM | > 100 µM | 27.9 µM | > 100 µM | > 100 µM | > 100 µM | 21.8 µM | > 100 µM | > 100 µM | > 100 µM |
| C/C(=N/O)c1cccc(Nc2cc(-n3nnc4ccccc43)nc3ccccc23)c1 | 25 µM | 55.8 µM | 13.3 µM | > 72.9 µM | 3.98 µM | 18.6 µM | 10.3 µM | 26 µM | 7.48 µM | 20.3 µM | 14.4 µM | > 55.6 µM | 4.05 µM | > 40 µM | 11.8 µM | 47.3 µM | 14.7 µM | 46.7 µM | 21.5 µM | 57 µM |
| O=C(O)c1nc(NCc2nc3cc(Cl)ccc3o2)n[nH]1 | > 100 µM | > 100 µM | > 100 µM | > 100 µM | > 100 µM | > 100 µM | > 100 µM | > 100 µM | > 100 µM | > 100 µM | > 100 µM | > 100 µM | > 100 µM | > 100 µM | > 100 µM | > 100 µM | > 100 µM | > 100 µM | > 100 µM | > 100 µM |
| N#CC(C#N)=C/C=C(\Cl)c1ccc(Cl)cc1 | 20.5 µM | 38.6 µM | 17.4 µM | 39.3 µM | 0.425 µM | > 100 µM | 1.58 µM | 3.76 µM | 1.93 µM | 7.38 µM | 14 µM | > 100 µM | 0.696 µM | > 100 µM | 7.69 µM | 33.9 µM | 25.1 µM | > 100 µM | 1.93 µM | 9.9 µM |
| COc1cc2c(c3c1c(=O)c1ccccc1n3C)C=CC1(CCCC1)O2 | – | 31.9 µM | – | 47.1 µM | – | 53.9 µM | – | 28.6 µM | – | 29.1 µM | – | 39.4 µM | – | > 100 µM | – | 37.1 µM | – | 24.6 µM | – | 37.2 µM |
| COC(=O)C1=C(O)C(C(=O)OC)C2CC(=O)CC1C2(C)C (stereo not given) | – | > 100 µM | – | > 100 µM | – | > 100 µM | – | > 100 µM | – | > 100 µM | – | > 100 µM | – | > 100 µM | – | > 100 µM | – | > 100 µM | – | > 100 µM |
| O=C1/C(=C/c2ccc([N+](=O)[O-])cc2)CN(C(=O)CCN2CCC(=NO)CC2)C/C1=C\c1ccc([N+](=O)[O-])cc1 | 1.75 µM | 3.95 µM | 2.85 µM | 12.4 µM | 0.534 µM | 9.93 µM | 0.552 µM | 1.53 µM | 1.51 µM | 6.4 µM | 0.431 µM | 2.87 µM | 0.409 µM | > 20 µM | 2.03 µM | 5.41 µM | 1.15 µM | 3.95 µM | 0.311 µM | 0.982 µM |
| CCCN1C(=O)NC(=O)C(CC)(N2C(=O)c3c(F)c(F)c(F)c(F)c3C2=O)C1=O (stereo not given) | 3.93 µM | 11.6 µM | 2.84 µM | 8.45 µM | 1.1 µM | 3.24 µM | 1.48 µM | 4.93 µM | 2.2 µM | 6.37 µM | 0.987 µM | 4.06 µM | 2.71 µM | 8.65 µM | 3.08 µM | 12.1 µM | 2.24 µM | 5.71 µM | 1.3 µM | 2.82 µM |
